Test results reported in paper PMC9821130, “Testing Antimicrobial Properties of Selected Short Amyloids” (International Journal of Molecular Sciences, 2023).
Converted amounts (≈) assume the structure as drawn. Like-named read-outs stand apart in the source and are kept apart here. Where a SMILES comes first, the peptide text is derived from it. Where no end group is shown, it is not given here.

Tests used:
[1] = system: Enterococcus faecium 2VRE; assay type: cell-based
Procedure: (§1) All bacterial strains were stored at −80 °C. The strains were revived using overnight cultures prepared in Tryptic Soy Broth (TSB, OXOID, Basingstoke, UK) and incubated under shaking conditions (MaxQTM6000 incubator shaker, Thermo Scientific, Waltham, MA, USA) at 125 rpm and 37 °C. Next, the purity of the strains was evaluated using enriched media (appropriate for the tested strains). For each experiment, a fresh 18–20 h culture was prepared on Tryptic Soy Agar (TSA, OXOID, Basingstoke, UK) for Gram-positive bacteria and MacConkey Agar (MC, OXOID, Basingstoke) for Gram-negative bacteria, and the samples were then transferred to fresh Mueller–Hinton Broth (MHB, OXOID, Basingstoke, UK), where the density was determined. Each culture was established at 10^8 CFU/mL and then diluted to a starting inoculum of 10^6 CFU/mL.
(§2) The microdilution method was used to measure the antimicrobial activity of amyloids. The test was performed according to the recommendations of EUCAST (ISO 20776–1:2019).
(§3) In 96-well microtiter plates, geometric dilutions of the tested amyloids were prepared from 128 to 0.25 µg/mL in 50 µL MHB. The stock solution (20 mg/mL) of the synthesized amyloids was prepared in MHB. The bacterial suspension prepared in MHB with a density of 10^6 CFU/mL was added to 50 µL of MHB containing the appropriate concentrations of amyloids, thus yielding a final bacterial concentration of 10^5 CFU/mL. Pure MHB was used as a negative control, while the control for bacterial growth was MHB medium in the presence of the strain used in the experiment. Antibiotic solutions were used as positive controls: colistin for Gram-negative bacteria and teicoplanin for Gram-positive bacteria.
(§4) Microtiter plates were incubated at 37 °C for 18 h for S. aureus, S. epidermidis, K. pneumoniae, E. coli, A. baumannii, and E. cloacae and 24 h for E. faecalis and E. faecium. Optimal density (OD600 nm) was measured in a plate reader (ASYS UVM340, BIOCHROM Ltd., Cambridge, UK). The absorbance results were converted to percentages (with respect to growth control) in the normalization process. The MIC (minimal inhibitory concentration) for each peptide was defined as the concentration at which the destruction of at least 90% of the initial inoculum was observed.
(§5) Each experiment was performed in three independent studies for each of the two isolates, and each replicate was performed in three separate wells. […] The MBC value was defined as the lowest concentration at which no growth of the tested strain was observed.
(§6) Linear regression analyses for viability of the HEK-293 cells subjected to ten amyloids, as well as the estimation of IC50 values, were determined in R Statistical Software using the model y = ax + 100% in the function lm from the stats package. The regression analyses for the viability of the bacterial cells and the estimation of MIC were conducted based on a linear mixed-effects model y = ax + 100% + (1|isolate/replicate) in lmer function from R package lme4 [73]. Isolates and replicates were assumed as random effects. The p-values of the determination coefficient and the slope were corrected using the Benjamini–Hochberg procedure for the obtained models.

[2] = system: Enterococcus faecalis 37VRE; assay type: cell-based
Procedure: as §1, §2, §3, §4, §5, §6

[3] = system: Escherichia coli 1471; assay type: cell-based
Procedure: as §1, §2, §3, §4, §5, §6

[4] = system: Klebsiella pneumoniae N111; assay type: cell-based
Procedure: as §1, §2, §3, §4, §5, §6

[5] = system: HEK-293 cells; assay type: cell-based, human; settings: HEK-293, MTT, 24 h exposure, 128 to 0.25 µg/mL; from linear regression y = ax + 100%
Procedure: HEK-293 human embryonic kidney cells (ATCC, CRL-1573) were cultured in DMEM medium supplemented with 10% fetal bovine serum and 1% penicillin/streptomycin solution. The cells were cultured at 37 °C, 5% CO2, until the concentration was about 10^6 per mL. A total of 2 × 10^5 cells/mL were seeded in 96-well tissue microplates (2 × 10^4 cells per well) and were allowed to adhere overnight under the conditions described above. Cytotoxicity tests were carried out on the cells prepared in this way.
Cells were incubated with varying concentrations from 128 to 0.25 µg/mL of the tested amyloid for 24 h exposure. The MTT assay has been previously described. After incubating the cells with the tested amyloids, the MTT reagent (Ck = 0.5 mg/mL) was added to a well of a microtiter plate. After 2 h incubation (37 °C, 5% CO2), the MTT medium was removed and replaced with DMSO, to which was then added Sorensen’s buffer (0.1 M glycine, 0.1 M NaCl; pH 10.5). In the MTT test, the cell viability is directly proportional to the absorbance (570 nm). The control cells for background absorbance contained the growth medium, with MTT only. For MTT analysis, at least three experiments were performed using cells from consecutive passages. […]

[6] = Thioflavin T fluorescence, fibril/aggregate formation in MHB; assay type: physicochemical; settings: ThT 20 µM, peptide 20 mg/mL in MHB, 37 °C, 24 h, reading every 30 s, ex 450 nm / em 490 nm
Procedure: In the second stage of our research, we decided to determine the propensity of the ten short amyloids (Table 1) to form fibrils under the conditions routinely used to evaluate AMP properties, i.e., upon their incubation in Mueller–Hinton Broth (MHB; for details, see Materials and Methods). These experiments could also allow us to speculate whether the amyloid properties of peptides go along with their antimicrobial activities. To detect the presence of protein fibrils, we used a benzothiazole dye (thioflavin T). Thioflavin T binds to β sheet-rich structures in amyloid aggregates and triggers a characteristic red shift, i.e., an increase in the wavelength in both excitation and emission maximum of the dye. […] The fluorescence spectra of the remaining peptides were indistinguishable from those of the medium itself (Figure S1).
The amyogenic abilities of the tested amyloids were determined in a kinetic reaction using the fluorescent dye thioflavin T (ThT), according to the modified method of Salinas et al.. […] ThT fluorescence intensity readings were performed in 96-well opaque microplates using a SpectraMax GeminiXPS spectrofluorometer at an excitation of λex 450 nm, an emission of λem 490 nm, and a cut-off point of λcut off 475 nm. Measurements were monitored for 24 h every 30 s. at 37 °C. The results were analysed in the SoftMax program. […]

Molecule: VGIVYK [Amyloid 10]
- MIC ([1]; 2VRE): 295 µg/mL
- MIC ([2]; 37VRE): 193 µg/mL

Molecule: LKVKVL [Amyloid 7]
- MIC ([1]; 2VRE): 326 µg/mL
- MIC ([2]; 37VRE): 418 µg/mL
- MIC [3]: 345 µg/mL

Molecule: VKIVYK [Amyloid 6]
- MIC ([4]; N111): 482 µg/mL
- MIC ([1]; 2VRE): 179 µg/mL
- MIC [3]: 319 µg/mL

Molecule: AIIGLM [Amyloid 8]
- MIC ([4]; N111): 475 µg/mL
- MIC ([1]; 2VRE): 280 µg/mL
- MIC ([2]; 37VRE): 496 µg/mL
- MIC [3]: 372 µg/mL

Molecule: VQIVCK [Amyloid 1]
- MIC ([1]; 2VRE): 196 µg/mL
- MIC ([2]; 37VRE): 228 µg/mL

Molecule: GGYLLG [Amyloid 9]
- MIC ([4]; K. pneumoniae N111, calculated from linear mixed-effects regression model, beyond tested range (max 128 µg/mL)): 406 µg/mL
- MIC ([1]; E. faecium 2VRE, calculated from linear mixed-effects regression model, beyond tested range (max 128 µg/mL), MIC = at least 90% destruction): 204 µg/mL
- MIC ([2]; E. faecalis 37VRE, calculated from linear mixed-effects regression model, beyond tested range (max 128 µg/mL)): 389 µg/mL
- IC50 [5]: 171 µg/mL

Molecule: VCIVYK [Amyloid 2]
- MIC ([1]; 2VRE): 177 µg/mL
- MIC ([2]; 37VRE): 364 µg/mL

Molecule: C[C@@H](O)[C@H](NC(=O)[C@H](Cc1ccccc1)NC(=O)[C@H](CS)NC(=O)[C@H](Cc1c[nH]c2ccccc12)NC(=O)[C@H](CS)NC(=O)[C@@H](N)CCCCN)C(=O)O [Amyloid 5] (H-KCWCFT-OH; N-terminus and C-terminus assumed)
- MIC ([1]; 2VRE): 230 µg/mL (≈ 292 µM)
- MIC [3]: 405 µg/mL (≈ 515 µM)
- Formation of aggregates (fibrils) in the MHB medium [6]: formed aggregates in the MHB medium

Molecule: LIVAGK [Amyloid 3]
- MIC ([1]; 2VRE): 301 µg/mL
